pEC50, pIC50: −log10 of the molar value. Active and inactive are the calls of the source. The calls are words filed in the database; no cut-off is given here.
Tests used:
[1] = Competitive binding affinity to Fe3+ ion assessed as metal chelating activity by measuring binding constant by calcein probe based fluorescence displacement assay
[2] = system: HK-2; test: Inhibition of RSL-3 induced ferroptosis in human HK-2 cells incubated for 48 hrs in presence of FAC; format: functional, cell-based; conditions: HK-2, 48 h
[3] = Cytotoxicity against human HK-2 cells assessed as cell growth inhibition incubated for 48 hrs by SRB assay; format: toxicity, cell-based
[4] = system: HK-2; test: Anti-ferroptotic activity against RSL3-induced ferroptosis in human HK-2 cells assessed as decrease in lipid peroxidation by measuring fluorescent intensity preincubated with FAC for 2 hrs followed by compound addition and measured after 12 hrs by flow cytometry analysis; format: functional, cell-based
[5] = Antioxidant activity assessed as ABTS radical scavenging activity incubated for 6 mins by absorbance based microplate reader analysis; format: functional
[6] = Potency index, ratio of trolox IC50 to test compound IC50 for antioxidant activity assessed as ABTS radical scavenging activity incubated for 6 mins by absorbance based microplate reader analysis; format: functional
[7] = Sub-acute in C57BL/6 mouse assessed as animal death at 1 mg/kg, ip measured on day 2; format: toxicity, organism-based; conditions: in vivo, 48 h, time 2 day
[8] = system: Mus musculus; test: Reno-protective activity against glycerol-induced rhabdomyolysis acute kidney injury C57BL/6 mouse model assessed as decrease in BUN level at 50 mg/kg, ip preadministered with every 12 hrs of compound for 5 times in first three days with subsequent 1 hrs compound treatment after 16 hrs of water deprivation followed by glycerol administration and measured on day 5; format: functional; design: scale not given: the % may be the effect or the level left; conditions: time 5 day
[9] = system: Mus musculus; test: Reno-protective activity against glycerol-induced rhabdomyolysis acute kidney injury C57BL/6 mouse model assessed as decrease in serum creatinine level at 50 mg/kg, ip preadministered with every 12 hrs of compound for 5 times in first three days with subsequent 1 hrs compound treatment after 16 hrs of water deprivation followed by glycerol administration and measured on day 5; format: functional; design: scale not given: the % may be the effect or the level left; conditions: time 5 day
[10] = system: Mus musculus; test: Reno-protective activity against glycerol-induced rhabdomyolysis acute kidney injury C57BL/6 mouse model assessed as downregulation of […] mRNA expression at 4 to 10 mg/kg, ip preadministered with every 12 hrs of compound for 5 times in first three days with subsequent 1 hrs compound treatment after 16 hrs of water deprivation followed by glycerol administration and measured on day 5 by qRT-PCR analysis; format: functional, organism-based; conditions: dose 4-10 mg/kg, time 5.0 day
[11] = Sub-acute in C57BL/6 mouse assessed as animal death at 1 mg/kg, ip measured for 7 days; format: toxicity, organism-based; conditions: in vivo, 168 h, time 7 day
[12] = Sub-acute in C57BL/6 mouse assessed as poisoning symptoms at 1 mg/kg, ip measured for 7 days; format: toxicity, organism-based; conditions: in vivo, 168 h, time 7 day
[13] = target: Hypoxia-inducible factor 1-alpha (Homo sapiens) (UniProt Q16665); test: Induction of HIF-1alpha stabilization in human HK-2 cells by Western blotting analysis; format: cell-based; conditions: dose 5-20 µM
Sequence of Hypoxia-inducible factor 1-alpha (Homo sapiens) (Q16665 whole entry, looked up): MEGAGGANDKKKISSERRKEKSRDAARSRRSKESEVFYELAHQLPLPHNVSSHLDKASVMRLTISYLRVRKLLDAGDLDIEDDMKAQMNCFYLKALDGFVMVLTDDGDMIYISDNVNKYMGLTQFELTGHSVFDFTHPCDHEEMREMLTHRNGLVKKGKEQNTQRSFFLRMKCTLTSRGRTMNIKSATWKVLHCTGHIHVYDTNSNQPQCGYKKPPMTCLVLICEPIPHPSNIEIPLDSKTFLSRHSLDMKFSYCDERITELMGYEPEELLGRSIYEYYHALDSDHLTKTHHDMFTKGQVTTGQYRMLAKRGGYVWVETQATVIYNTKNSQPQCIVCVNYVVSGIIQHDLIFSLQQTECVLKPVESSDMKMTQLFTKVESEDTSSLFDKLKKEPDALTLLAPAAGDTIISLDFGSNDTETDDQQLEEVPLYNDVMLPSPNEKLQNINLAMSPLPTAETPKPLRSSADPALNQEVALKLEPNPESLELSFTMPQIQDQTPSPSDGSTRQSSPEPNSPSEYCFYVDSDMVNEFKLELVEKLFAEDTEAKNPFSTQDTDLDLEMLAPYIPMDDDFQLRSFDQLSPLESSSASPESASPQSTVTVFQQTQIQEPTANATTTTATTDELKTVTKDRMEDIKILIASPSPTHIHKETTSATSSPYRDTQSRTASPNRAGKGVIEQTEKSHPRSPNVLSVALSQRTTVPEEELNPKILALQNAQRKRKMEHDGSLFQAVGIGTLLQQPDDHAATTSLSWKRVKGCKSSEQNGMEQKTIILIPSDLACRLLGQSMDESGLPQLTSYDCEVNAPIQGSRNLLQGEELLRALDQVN

[14] = system: Mus musculus; test: Reno-protective activity against glycerol-induced rhabdomyolysis acute kidney injury C57BL/6 mouse model assessed as decrease in serum creatinine level at 4 mg/kg, ip preadministered with every 12 hrs of compound for 5 times in first three days with subsequent 1 hrs compound treatment after 16 hrs of water deprivation followed by glycerol administration and measured on day 5; format: functional; design: scale not given: the % may be the effect or the level left; conditions: time 5 day
[15] = system: Mus musculus; test: Reno-protective activity against glycerol-induced rhabdomyolysis acute kidney injury C57BL/6 mouse model assessed as decrease in serum creatinine level at 4 to 10 mg/kg, ip preadministered with every 12 hrs of compound for 5 times in first three days with subsequent 1 hrs compound treatment after 16 hrs of water deprivation followed by glycerol administration and measured on day 5; format: functional, organism-based; conditions: dose 4-10 mg/kg, time 5.0 day
[16] = system: HK-2; test: Upregulation in intracellular HIF-1alpha level in human HK-2 cells at 20 uM under normoxia condition incubated for 12 hrs by Western blot analysis; format: functional, cell-based
[17] = system: Mus musculus; test: Upregulation of HIF-1alpha expression in C57BL/6 mouse kidney at 50 mg/kg, ip administered for every 12 hrs for 3 days and measured after 5 days; format: functional, organism-based
[18] = system: Mus musculus; test: Reno-protective activity against glycerol-induced rhabdomyolysis acute kidney injury C57BL/6 mouse model assessed as decrease in iron accumulation in kidney at 4 to 10 mg/kg, ip preadministered with every 12 hrs of compound for 5 times in first three days with subsequent 1 hrs compound treatment after 16 hrs of water deprivation followed by glycerol administration and measured on day 5; format: functional, organism-based; conditions: dose 4-10 mg/kg, time 5.0 day
[19] = system: Mus musculus; test: Reno-protective activity against glycerol-induced rhabdomyolysis acute kidney injury C57BL/6 mouse model assessed as decrease in serum creatinine level at 10 mg/kg, ip preadministered with every 12 hrs of compound for 5 times in first three days with subsequent 1 hrs compound treatment after 16 hrs of water deprivation followed by glycerol administration and measured on day 5; format: functional; design: scale not given: the % may be the effect or the level left; conditions: time 5 day
[20] = Toxicity in C57BL/6 mouse assessed as kidney damage at 10 mg/kg, ip measured for 3 days by H and E staining based analysis; format: organism-based; conditions: in vivo, 72 h, time 3 day
[21] = Sub-acute in C57BL/6 mouse assessed as change in body weight at 200 mg/kg, ip measured for 7 days; format: toxicity, organism-based; conditions: in vivo, 168 h, time 7 day
[22] = system: Mus musculus; test: Reno-protective activity against glycerol-induced rhabdomyolysis acute kidney injury C57BL/6 mouse model assessed as decrease in BUN level at 10 mg/kg, ip preadministered with every 12 hrs of compound for 5 times in first three days with subsequent 1 hrs compound treatment after 16 hrs of water deprivation followed by glycerol administration and measured on day 5; format: functional; design: scale not given: the % may be the effect or the level left; conditions: time 5 day
[23] = system: Mus musculus; test: Reno-protective activity against glycerol-induced rhabdomyolysis acute kidney injury C57BL/6 mouse model assessed as downregulation of Ptgs2 mRNA expression at 4 to 10 mg/kg, ip preadministered with every 12 hrs of compound for 5 times in first three days with subsequent 1 hrs compound treatment after 16 hrs of water deprivation followed by glycerol administration and measured on day 5 by qRT-PCR analysis; format: functional, organism-based; conditions: dose 4-10 mg/kg, time 5.0 day
[24] = system: Mus musculus; test: Reno-protective activity against glycerol-induced rhabdomyolysis acute kidney injury C57BL/6 mouse model assessed as decrease in BUN level at 4 to 10 mg/kg, ip preadministered with every 12 hrs of compound for 5 times in first three days with subsequent 1 hrs compound treatment after 16 hrs of water deprivation followed by glycerol administration and measured on day 5; format: functional, organism-based; conditions: dose 4-10 mg/kg, time 5.0 day
[25] = system: Mus musculus; test: Reno-protective activity against glycerol-induced rhabdomyolysis acute kidney injury C57BL/6 mouse model assessed as decrease in BUN level at 4 mg/kg, ip preadministered with every 12 hrs of compound for 5 times in first three days with subsequent 1 hrs compound treatment after 16 hrs of water deprivation followed by glycerol administration and measured on day 5; format: functional; design: scale not given: the % may be the effect or the level left; conditions: time 5 day
[26] = system: HK-2; test: Upregulation in intracellular HIF-1alpha level in human HK-2 cells at 50 uM under normoxia condition incubated for 12 hrs by Western blot analysis; format: functional, cell-based

SMILES | Kb [1] | pEC50 [2] | CC50 at 48 h [3] [µM] | also measured
CCc1c(O)c(=O)ccn1CCc1ccccc1 | 1.69 10^22/M | < 4.00 | > 100 | 
Cc1c(O)c(=O)ccn1-c1ccc(OCCOCCN(C)C)cc1 | 1.79 10^22/M | 4.55 | 68 | Activity [4]: Active; pIC50 [5]: 4.65; Ratio IC50 [6]: 1.5
Cc1c(O)c(=O)ccn1-c1ccc(NCCN2CCN(C)CC2)cc1 | 1.22 10^22/M | 4.36 | > 100 | 
Cc1c(O)c(=O)ccn1-c1ccc(OCCCN2CCOCC2)cc1 | 1.23 10^22/M | 4.70 | 78 | Activity [4]: Active; pIC50 [5]: 4.76; Ratio IC50 [6]: 1.5
Cc1c(O)c(=O)ccn1-c1ccc(N(C)CCO)cc1 | 1.15 10^22/M | 4.34 | > 100 | 
COc1cc(N2CCN(C)CC2)ccc1-n1ccc(=O)c(O)c1C | 1.88 10^22/M | < 4.00 | > 100 | 
Cc1c(O)c(=O)ccn1-c1ccc(N2CCN(C)CC2)c(F)c1 | 1.17 10^22/M | 4.03 | > 100 | 
Cc1c(O)c(=O)ccn1C [DEFERIPRONE] | 1.52 10^22/M | < 4.00 | > 100 | Activity [7]: Toxic; pIC50 [5]: 4.80; Activity [8]: 18%; Activity [9]: 19%
Cc1c(C)c2c(c(C)c1O)CCC(C)(C(=O)O)O2 (centres undefined) [TROLOX] |  |  |  | pIC50 [5]: 4.47
Cc1c(O)c(=O)ccn1-c1ccc(N(C)CCN(C)C)cc1.Cl | 1.16 10^22/M | 4.70 | > 100 | Activity [10]: Active; Activity [11]: Non-Toxic; Activity [12]: Non-Toxic; Activity [13]: Dose-Dependent Effect; Activity [14]: 14%; Activity [4]: Active; pIC50 [5]: 4.91; Activity [15]: Active; Activity [16]: Active; Activity [17]: Active; Activity [18]: Active; Activity [19]: 68%; Activity [20]: Non-Toxic; Activity [21]: Non-Toxic; Activity [22]: 44%; Activity [23]: Active; Activity [24]: Active; Ratio IC50 [6]: 1.5; Activity [25]: 19%
Cc1c(O)c(=O)ccn1-c1ccc(OCCN2CCCCC2)cc1 | 2.23 10^22/M | 4.07 | > 100 | 
Cc1c(O)c(=O)ccn1-c1ccc(OCCN(C)C)cc1 | 1.37 10^22/M | 4.74 | > 100 | Activity [4]: Active; pIC50 [5]: 4.64; Ratio IC50 [6]: 1.5
Cc1c(O)c(=O)ccn1-c1ccc(OC2CCN(C)C2)cc1 (centres undefined) | 1.35 10^22/M | < 4.00 | > 100 | 
Cc1c(O)c(=O)ccn1-c1ccc(N2CCOCC2)cc1 | 1.33 10^22/M | 4.24 | > 100 | 
Cc1c(O)c(=O)ccn1-c1ccc(OCC2CCN(C)CC2)cc1 | 1.12 10^22/M | 4.37 | > 100 | 
Cc1c(O)c(=O)ccn1-c1ccc(N2CCN(C)CC2)cc1 | 1.3 10^22/M | 4.22 | 81 | Activity [26]: Active
Cc1c(O)c(=O)ccn1-c1ccc(N(C)C)cc1 | 0.98 10^22/M | 4.35 | > 100 | 
Cc1c(O)c(=O)ccn1CC1CCCCC1 | 1.32 10^22/M | < 4.00 | > 100 | 
Cc1c(O)c(=O)ccn1CCc1ccccc1 | 1 10^22/M | < 4.00 | > 100 | 
Cc1c(O)c(=O)ccn1CCN(C)C | 1.21 10^22/M | < 4.00 | > 100 | 
Cc1c(O)c(=O)ccn1-c1ccc(NCCN(C)C)cc1 | 1.4 10^22/M | 4.46 | > 100 | 

— ChEMBL document CHEMBL5537116, “Synthesis and structure-activity optimization of hydroxypyridinones against rhabdomyolysis-induced acute kidney injury” (Eur J Med Chem, 2024)
